Results from US4294833A, “Substituted 4-hydroxy-isophthalic acid picolylamides having a pharmaceutical activity in thromboembolic disorders” (Societa Italo-Britannica, priority 1977, dated 1981).

Assays:
[1] = test system: platelet aggregation induced by ADP; assay: Platelet aggregation inhibitory activity in vivo (Born aggregometer), ADP-induced; set-up: species or system New Zealand rabbits; conditions: Oryctolagus cuniculus, Platelet, ip, dose for 50% inhibition of ADP-induced aggregation curve; rabbits, intraperitoneal, blood 2, 4 and 6 hours after injection; read-out: platelet antiaggregant activity (AAP), DI50, ADP
Protocol: (§1) Determination of the platelet aggregation inhibitory activity in vivo
(§2) The activity of the above described compounds as platelet antiaggregant was tested in vivo on rabbits, by the Born aggregometer. The inhibition of the aggregation curve induced by ADP and thrombin was assessed with different drug concentrations according to the platelet reactivity. New Zealand rabbits which had been held fasting for 12 hours with water ad libitum, were anaesthetized with Nembutal in a dose of 35 mg/kg intramuscolarly. The blood was withdrawn from the carotidal arthery, before (control) and 2, 4, and 6 hours after the intraperitoneal injection of the compounds under examination (at the dose indicated below). The blood samples were taken up in a 3.8% aqueous solution of sodium citrate in a ratio 10:1 and thereupon centrifuged at 1500 r.p.m. for 10 minutes, for obtaining a PRP (platelet rich plasma). A portion of such a plasma was thereupon centrifuged at 8000 r.p.m. for 10 minutes, for obtaining a PPP (platelet lean plasma) which was used for zeroing the measuring apparatus.
(§3) From the results of said experiments, there was determined the dose of each product in mg/kg body weight able to induce a 50% inhibition of the aggregation curve (DI50) after treatment, referred to the curve obtained by the same control plasma before treatment.
(§4) In tables I and II are further indicated for each compound the method of preparation; the melting point PF in °C; the platelet antiaggregant activity (AAP) expressed in terms of DI50 in mg/kg, referred to ADP and thrombin respectively; the antithrombin activity (AT) in %; the anticoagulant activity (AC) in %; the fibrinolytic activity (FL) in %; the acute toxicity (LD50) in mice, intraperitoneally, in mg/kg, as previously defined.

[2] = Acute toxicity, intraperitoneal; conditions: mouse, in vivo, ip, male Swiss mice, intraperitoneal, 7 days observation; preliminary, by graphic interpolation; read-out: acute toxicity (LD50 / DL50)
Protocol: The acute toxicity limit was determined intraperitoneally on male Swiss mice, weighing 20±2 g, held fasting for 18 hours with water ad libitum.
The animals were maintained under observation for 7 days of treatment, by examining the general symptomatology and noting the death sequency. The preliminary DL50 in mg/kg body weight was calculated by graphic interpolation of the results as obtained.
as §4

[3] = test system: thrombin-induced coagulation of platelet rich plasma; assay: Antithrombin activity on PRP, Hartert's thromboelastograph; assay type: in vivo, New Zealand rabbits; conditions: Oryctolagus cuniculus, Platelet, ip, percent decrease of index ma/[r+k] vs before treatment; 20 mg/kg intraperitoneal, rabbits
Protocol: Determination of the antithrombin activity
The antithrombin activity on the PRP (platelet rich plasma) obtained following the above described method was assessed by Hartert's thromboelastograph (Hellige model). The coagulation was induced by adding to 0.25 ml of plasma 0.06 ml of a thrombin solution (Roche Topostasin® per os) at 60 units*, pH 7.4**. The antithrombin activity was assessed in terms of a percent decrease of the index (ma/[r+k]) which was calculated from the thromboelastograph diagram, wherein r is the reaction time, k is the speed of the coagulum formation and ma is the maximum spread of the tong, after an intraperitoneal treatment with a dose of 20 mg/kg of each compound under examination, referred to the same index obtained before the treatment (control).
as §4

blood coagulum = assay: Fibrinolytic activity, Fearnley method (lysis of blood coagulum in toto); assay type: in vivo; conditions: Oryctolagus cuniculus, ip, 0.5 h, percent decrease of coagulum weight after 30 minutes at 37° C.; 25 mg/kg intraperitoneal, rabbits; read-out: fibrinolytic activity (FL)
Protocol: Determination of the fibrinolytic activity
The determination of the fibrinolytic activity was made following the Fearnley method for the lysis of the blood coagulum in toto.
0.2 ml of blood were withdrawn from the marginal vein of the ear of rabbits treated in the same way as the previously described tests, before and after an intraperitoneal injection of the compounds under test at a dose level of 25 mg/kg for each compound.
The blood samples were placed in test tubes containing 1.7 ml of phosphate buffer at pH 7.4 and 0.1 ml of thrombin (Roche Topostasin ® per os) at 50 units NIH/ml, and maintained in an ice bath. The test tubes were maintained at said temperature for 30 minutes and thereupon were transferred to a temperature controlled water bath at 37° C.
The fibrinolytic activity was determined as a percent decrease of the coagulum weight, measured after incubation for 30 minutes at 37° C.
as §4

[4] = test system: platelet aggregation induced by thrombin; assay: Platelet aggregation inhibitory activity in vivo (Born aggregometer), thrombin-induced; set-up: species or system New Zealand rabbits; conditions: Oryctolagus cuniculus, Platelet, ip, dose for 50% inhibition of thrombin-induced aggregation curve; rabbits, intraperitoneal, blood 2, 4 and 6 hours after injection; read-out: platelet antiaggregant activity (AAP), DI50, Thrombin
Protocol: as §1, §2, §3, §4

[5] = test system: CaCl2-induced plasma coagulation; assay: Anticoagulant activity on PRP, Hartert's thromboelastograph; assay type: in vivo, New Zealand rabbits; conditions: Oryctolagus cuniculus, ip, percent increase of total time for coagulum formation (r+k) vs before treatment; 25 mg/kg intraperitoneal, rabbits; read-out: anticoagulant activity (AC)
Protocol: Determination of the anticoagulant activity
The anticoagulant activity was also assessed on PRP of animals treated as described in the preceding methods, by using again Hartert's thromboelastograph method.
The plasma coagulation was induced by adding to 0.25 ml PRP a 1.29% solution of CaCl2.
The anticoagulant effect was determined as a percent increase of the total time for the coagulum formation (the index r+k can be obtained from the thromboelastograph diagram) in a plasma after treatment, referred to the same index obtained before the treatment (control). Again the dose level was 25 mg/kg for each compound under examination, intraperitoneally.
as §4

Row | SMILES | ED50 [1] [mg/kg] | LD50 at 168 h [2] [mg/kg] | inhibition in vivo at 20 mg/kg [3] [%] | fibrinolytic activity (percent decrease of coagulum weight) at 25 mg/kg (blood coagulum) [%] | ED50 [4] [mg/kg] | change in vivo at 25 mg/kg [5] [%]
1 | COc1cc(C(=O)NCc2cccnc2)cc(C(=O)NCc2cccnc2)c1OC1CC1 [Example 18] | 29.4 | 228 | 33.4 | 28.6 | 22 | 20.1
2 | CC(C)(C)COc1ccc(C(=O)NCc2cccnc2)cc1C(=O)NCc1cccnc1 [Example 34] | 35.6 | 351 | 29.7 | 22.7 | 27.3 | 13.6
3 | C=CCOc1c(C(=O)NCc2cccnc2)cc(C(=O)NCc2cccnc2)cc1[N+](=O)[O-] [Example 36] | 36.3 | 267 | 23 | 19.1 | 27.1 | 11.9
4 | C=CCCOc1ccc(C(=O)NCc2cccnc2)cc1C(=O)NCc1cccnc1 [Example 8] | 35.5 | 362 | 50.6 | 42.1 | 25.7 | 14.2
5 | CCCCN(Cc1cccnc1)C(=O)c1ccc(OC)c(C(=O)N(CCCC)Cc2cccnc2)c1 [Example 42] | 66.4 | 623 | 28.7 | 21.7 | 47.2 | 14.5
6 | C#CCOc1ccc(C(=O)NCc2cccnc2)cc1C(=O)NCc1cccnc1 [Example 22] | 36.5 | 382 | 33.1 | 29.2 | 24.4 | 13.6
7 | CC(C)(C)COc1c(C(=O)NCc2cccnc2)cc(C(=O)NCc2cccnc2)cc1[N+](=O)[O-] [Example 35] | 37.1 | 194 | 25.4 | 20.2 | 29.7 | 12.6
8 | CCCCCCOc1ccc(C(=O)NCc2ccncc2)cc1C(=O)NCc1ccncc1 [Example 60] | 20.3 | 206 | 48.6 | 38.5 | 17.5 | 22.2
9 | C=CCOc1ccc(C(=O)NCc2cccnc2)cc1C(=O)NCc1cccnc1 [Example 7] | 36.3 | 374 | 51.5 | 44.7 | 19.2 | 14.5
10 | O=C(NCc1cccnc1)c1cc(Cl)c(O)c(C(=O)NCc2cccnc2)c1 [Example 32] | 50.2 | 425 | 22.2 | 17.3 | 33.6 | 11.8
11 | CC(C)=COc1ccc(C(=O)NCc2ccncc2)cc1C(=O)NCc1ccncc1 [Example 65] | 36.7 | 240 | 34.2 | 26.5 | 24.5 | 23.8
